Assay results published in patent US11807835B2, “Detergent compositions containing a stabilized enzyme by phosphonates” (ECOLAB USA INC., priority 2016, dated 2023).

Tests used:
[1] = test system: protease; experiment: Protease activity retention in detergent use solution (4000 ppm, 5 GPG water; peptidyl substrate, glycine buffer pH 9.0); type: biochemical; conditions: for Relative Protease Enzyme Activity: use solution at 120° F.
In short: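 Detergent use solutions at 4000 ppm in 5 GPG water were held at 120° F with stirring and sampled up to 4 h, with aliquots flash-frozen. Activity was read on a peptidyl substrate in glycine buffer pH 9.0 by absorbance against a calibration curve. Retention is % activity relative to the t=0 sample.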

[2] = test system: lipase; experiment: Lipase activity retention in detergent use solution (4000 ppm, 5 GPG water; p-nitrophenyl valerate, TRIS buffer pH 8.0); type: biochemical; conditions: for Relative Lipase Enzyme Activity in a Use Solution of the All Ash Detergent Composition: Table 6F, 120º F.; for Relative Lipase Enzyme Activity: base formula
In short: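 Lipase stability was measured in a detergent use solution under conditions mimicking presoak or manual warewash, with stirring in a water bath. Aliquots were taken over time and flash-frozen. Thawed samples were diluted in TRIS buffer at pH 8.0 and assayed with p-nitrophenyl valerate as substrate on a plate reader. Activity is reported as % retained relative to the time=0 sample.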

Diglycolamine phosphonate [DGAP]
Relative Protease Enzyme Activity ([1]; All Ash formula, phosphonate 0.3 wt-%, time 0 min): 100.00%
Relative Protease Enzyme Activity ([1]; All Ash formula, phosphonate 0.3 wt-%, time 5 min): 81.79%
Relative Protease Enzyme Activity ([1]; All Ash formula, phosphonate 0.3 wt-%, time 10 min): 75.39%
Relative Protease Enzyme Activity ([1]; All Ash formula, phosphonate 0.3 wt-%, time 20 min): 59.47%
Relative Protease Enzyme Activity ([1]; All Ash formula, phosphonate 0.3 wt-%, time 40 min): 39.98%
Relative Protease Enzyme Activity ([1]; All Ash formula, phosphonate 0.3 wt-%, time 60 min): 27.49%
Relative Protease Enzyme Activity ([1]; All Ash formula, phosphonate 0.3 wt-%, time 90 min): 18.95%
Relative Protease Enzyme Activity ([1]; All Ash formula, phosphonate 0.3 wt-%, time 120 min): 12.48%
Relative Protease Enzyme Activity ([1]; All Ash formula, phosphonate 0.3 wt-%, time 150 min): 10.56%
Relative Protease Enzyme Activity ([1]; All Ash formula, phosphonate 0.3 wt-%, time 180 min): 9.69%
Relative Protease Enzyme Activity ([1]; All Ash formula, phosphonate 0.3 wt-%, time 210 min): 7.02%
Relative Protease Enzyme Activity ([1]; All Ash formula, phosphonate 0.3 wt-%, time 240 min): 6.34%
protease stability in all ash formula ([1]; all ash formula, versus same composition with PBTC or HEDP without amine(s), FIG. 2D): more stable
Relative Protease Enzyme Activity ([1]; base formula, phosphonate 0.3 wt-%, lower half of Table 4A, time 5): 98.30%
Relative Protease Enzyme Activity ([1]; base formula, phosphonate 0.3 wt-%, lower half of Table 4A, time 20): 91.75%
Relative Protease Enzyme Activity ([1]; base formula, phosphonate 0.3 wt-%, lower half of Table 4A, time 90): 84.87%
Relative Protease Enzyme Activity ([1]; base formula, phosphonate 0.3 wt-%, lower half of Table 4A, time 120): 82.96%
Relative Protease Enzyme Activity ([1]; base formula, phosphonate 0.3 wt-%, lower half of Table 4A, time 150, unit not given): 82.44%
Relative Protease Enzyme Activity ([1]; base formula, phosphonate 0.3 wt-%, lower half of Table 4A, time 210): 76.14%
Relative Protease Enzyme Activity ([1]; base formula, phosphonate 0.3 wt-%, lower half of Table 4A, time '0'): 100.00%
Relative Protease Enzyme Activity ([1]; base formula, phosphonate 0.3 wt-%, lower half of Table 4A, time '40'): 89.16%
Relative Protease Enzyme Activity ([1]; base formula, phosphonate 0.3 wt-%, lower half of Table 4A, time 'Blank'): 100.00%
Relative Protease Enzyme Activity ([1]; base formula, phosphonate 0.3 wt-%, lower half of Table 4A, time row printed '10'): 92.44%
Relative Protease Enzyme Activity ([1]; base formula, phosphonate 0.3 wt-%, lower half of Table 4A, time row printed '60'): 79.16%
Relative Protease Enzyme Activity ([1]; base formula, phosphonate 0.3 wt-%, lower half of Table 4A, time row printed '180'): 75.52%
Relative Protease Enzyme Activity ([1]; base formula, phosphonate 0.6 wt-%, time 0 min): 100.00%
Relative Protease Enzyme Activity ([1]; base formula, phosphonate 0.6 wt-%, time 5 min): 105.28%
Relative Protease Enzyme Activity ([1]; base formula, phosphonate 0.6 wt-%, time 10 min): 100.03%
Relative Protease Enzyme Activity ([1]; base formula, phosphonate 0.6 wt-%, time 20 min): 101.24%
Relative Protease Enzyme Activity ([1]; base formula, phosphonate 0.6 wt-%, time 40 min): 100.88%
Relative Protease Enzyme Activity ([1]; base formula, phosphonate 0.6 wt-%, time 90 min): 98.76%
Relative Protease Enzyme Activity ([1]; base formula, phosphonate 0.6 wt-%, time 120 min): 93.04%
Relative Protease Enzyme Activity ([1]; base formula, phosphonate 0.6 wt-%, time 150 min): 88.27%
Relative Protease Enzyme Activity ([1]; base formula, phosphonate 0.6 wt-%, time 180 min): 86.23%
Relative Protease Enzyme Activity ([1]; base formula, phosphonate 0.6 wt-%, time 210 min): 88.24%
Relative Protease Enzyme Activity ([1]; base formula, phosphonate 0.6 wt-%, time 240 min): 89.57%
Relative Protease Enzyme Activity ([1]; base formula, phosphonate at 0.1% elemental phosphorus, time 0 min): 100.00%
Relative Protease Enzyme Activity ([1]; base formula, phosphonate at 0.1% elemental phosphorus, time 5 min): 98.29%
Relative Protease Enzyme Activity ([1]; base formula, phosphonate at 0.1% elemental phosphorus, time 10 min): 103.47%
Relative Protease Enzyme Activity ([1]; base formula, phosphonate at 0.1% elemental phosphorus, time 20 min): 101.47%
Relative Protease Enzyme Activity ([1]; base formula, phosphonate at 0.1% elemental phosphorus, time 40 min): 88.60%
Relative Protease Enzyme Activity ([1]; base formula, phosphonate at 0.1% elemental phosphorus, time 60 min): 86.17%
Relative Protease Enzyme Activity ([1]; base formula, phosphonate at 0.1% elemental phosphorus, time 90 min): 85.84%
Relative Protease Enzyme Activity ([1]; base formula, phosphonate at 0.1% elemental phosphorus, time 120 min): 83.06%
Relative Protease Enzyme Activity ([1]; base formula, phosphonate at 0.1% elemental phosphorus, time 150 min): 81.53%
Relative Protease Enzyme Activity ([1]; base formula, phosphonate at 0.1% elemental phosphorus, time 180 min): 76.41%
Relative Protease Enzyme Activity ([1]; base formula, phosphonate at 0.1% elemental phosphorus, time 210 min): 74.23%
Relative Protease Enzyme Activity ([1]; base formula, phosphonate at 0.1% elemental phosphorus, time 240 min): 72.01%
Relative Lipase Enzyme Activity in a Use Solution of the All Ash Detergent Composition ([2]; all ash formula, phosphonate 0.3 wt-%, time 0 min): 100.00%
Relative Lipase Enzyme Activity in a Use Solution of the All Ash Detergent Composition ([2]; all ash formula, phosphonate 0.3 wt-%, time 5 min): 87.31%
Relative Lipase Enzyme Activity in a Use Solution of the All Ash Detergent Composition ([2]; all ash formula, phosphonate 0.3 wt-%, time 10 min): 76.38%
Relative Lipase Enzyme Activity in a Use Solution of the All Ash Detergent Composition ([2]; all ash formula, phosphonate 0.3 wt-%, time 20 min): 57.74%
Relative Lipase Enzyme Activity in a Use Solution of the All Ash Detergent Composition ([2]; all ash formula, phosphonate 0.3 wt-%, time 40 min): 40.00%
Relative Lipase Enzyme Activity in a Use Solution of the All Ash Detergent Composition ([2]; all ash formula, phosphonate 0.3 wt-%, time 60 min): 33.56%
Relative Lipase Enzyme Activity in a Use Solution of the All Ash Detergent Composition ([2]; all ash formula, phosphonate 0.3 wt-%, time 90 min): 25.59%
Relative Lipase Enzyme Activity in a Use Solution of the All Ash Detergent Composition ([2]; all ash formula, phosphonate 0.3 wt-%, time 120 min): 21.03%
Relative Lipase Enzyme Activity in a Use Solution of the All Ash Detergent Composition ([2]; all ash formula, phosphonate 0.3 wt-%, time 150 min): 17.27%
Relative Lipase Enzyme Activity in a Use Solution of the All Ash Detergent Composition ([2]; all ash formula, phosphonate 0.3 wt-%, time 180 min): 14.06%
Relative Lipase Enzyme Activity in a Use Solution of the All Ash Detergent Composition ([2]; all ash formula, phosphonate 0.3 wt-%, time 210 min): 12.18%
Relative Lipase Enzyme Activity in a Use Solution of the All Ash Detergent Composition ([2]; all ash formula, phosphonate 0.3 wt-%, time 240 min): 10.79%
lipase stability in all ash formula ([2]; all ash formula, versus same composition with PBTC or HEDP without amine(s), FIG. 6G): more stable
Relative Lipase Enzyme Activity ([2]; phosphonate 0.3 wt-%, use solution at 120° F., time 0 min): 100.00%
Relative Lipase Enzyme Activity ([2]; phosphonate 0.3 wt-%, use solution at 120° F., time 5 min): 83.54%
Relative Lipase Enzyme Activity ([2]; phosphonate 0.3 wt-%, use solution at 120° F., time 10 min): 88.25%
Relative Lipase Enzyme Activity ([2]; phosphonate 0.3 wt-%, use solution at 120° F., time 20 min): 77.15%
Relative Lipase Enzyme Activity ([2]; phosphonate 0.3 wt-%, use solution at 120° F., time 40 min): 62.99%
Relative Lipase Enzyme Activity ([2]; phosphonate 0.3 wt-%, use solution at 120° F., time 60 min): 52.84%
Relative Lipase Enzyme Activity ([2]; phosphonate 0.3 wt-%, use solution at 120° F., time 90 min): 43.46%
Relative Lipase Enzyme Activity ([2]; phosphonate 0.3 wt-%, use solution at 120° F., time 120 min): 35.40%
Relative Lipase Enzyme Activity ([2]; phosphonate 0.3 wt-%, use solution at 120° F., time 150 min): 31.10%
Relative Lipase Enzyme Activity ([2]; phosphonate 0.3 wt-%, use solution at 120° F., time 180 min): 22.42%
Relative Lipase Enzyme Activity ([2]; phosphonate 0.3 wt-%, use solution at 120° F., time 210 min): 24.78%
Relative Lipase Enzyme Activity ([2]; phosphonate 0.3 wt-%, use solution at 120° F., time 240 min): 22.08%
Relative Lipase Enzyme Activity ([2]; phosphonate 0.6 wt-%, use solution at 120º F., time 0 min): 100.00%
Relative Lipase Enzyme Activity ([2]; phosphonate 0.6 wt-%, use solution at 120º F., time 5 min): 95.36%
Relative Lipase Enzyme Activity ([2]; phosphonate 0.6 wt-%, use solution at 120º F., time 10 min): 100.58%
Relative Lipase Enzyme Activity ([2]; phosphonate 0.6 wt-%, use solution at 120º F., time 20 min): 94.94%
Relative Lipase Enzyme Activity ([2]; phosphonate 0.6 wt-%, use solution at 120º F., time 40 min): 93.85%
Relative Lipase Enzyme Activity ([2]; phosphonate 0.6 wt-%, use solution at 120º F., time 60 min): 86.18%
Relative Lipase Enzyme Activity ([2]; phosphonate 0.6 wt-%, use solution at 120º F., time 90 min): 76.99%
Relative Lipase Enzyme Activity ([2]; phosphonate 0.6 wt-%, use solution at 120º F., time 120 min): 71.87%
Relative Lipase Enzyme Activity ([2]; phosphonate 0.6 wt-%, use solution at 120º F., time 150 min): 72.77%
Relative Lipase Enzyme Activity ([2]; phosphonate 0.6 wt-%, use solution at 120º F., time 180 min): 64.17%
Relative Lipase Enzyme Activity ([2]; phosphonate 0.6 wt-%, use solution at 120º F., time 210 min): 63.68%
Relative Lipase Enzyme Activity ([2]; phosphonate 0.6 wt-%, use solution at 120º F., time 240 min): 56.85%
Relative Lipase Enzyme Activity ([2]; phosphonate at 0.1% elemental phosphorus, at 120º F. or at room temperature (as titled), time 0 min): 100.00%
Relative Lipase Enzyme Activity ([2]; phosphonate at 0.1% elemental phosphorus, at 120º F. or at room temperature (as titled), time 5 min): 88.13%
Relative Lipase Enzyme Activity ([2]; phosphonate at 0.1% elemental phosphorus, at 120º F. or at room temperature (as titled), time 10 min): 80.42%
Relative Lipase Enzyme Activity ([2]; phosphonate at 0.1% elemental phosphorus, at 120º F. or at room temperature (as titled), time 20 min): 74.76%
Relative Lipase Enzyme Activity ([2]; phosphonate at 0.1% elemental phosphorus, at 120º F. or at room temperature (as titled), time 40 min): 49.43%
Relative Lipase Enzyme Activity ([2]; phosphonate at 0.1% elemental phosphorus, at 120º F. or at room temperature (as titled), time 60 min): 46.05%
Relative Lipase Enzyme Activity ([2]; phosphonate at 0.1% elemental phosphorus, at 120º F. or at room temperature (as titled), time 90 min): 39.53%
Relative Lipase Enzyme Activity ([2]; phosphonate at 0.1% elemental phosphorus, at 120º F. or at room temperature (as titled), time 120 min): 34.69%
Relative Lipase Enzyme Activity ([2]; phosphonate at 0.1% elemental phosphorus, at 120º F. or at room temperature (as titled), time 150 min): 28.57%
Relative Lipase Enzyme Activity ([2]; phosphonate at 0.1% elemental phosphorus, at 120º F. or at room temperature (as titled), time 180 min): 25.49%
Relative Lipase Enzyme Activity ([2]; phosphonate at 0.1% elemental phosphorus, at 120º F. or at room temperature (as titled), time 210 min): 24.18%
Relative Lipase Enzyme Activity ([2]; phosphonate at 0.1% elemental phosphorus, at 120º F. or at room temperature (as titled), time 240 min): 22.78%
